Data as given in US20250109141A1, “BRD4 PROTEIN DEGRADER COMPOUND, AND PREPARATION METHOD AND USE THEREOF” (Miracure Biotechnology Limited, priority 2023, published 2025).
Read-outs that look alike come from different tables or passages of the source.

How the values were obtained:
22RV1 = test: Cell proliferation assay (CellTiterGlo, 72 h), 22RV1; format: cell-based; settings: Homo sapiens, read-out: 22Rv1 ATP average IC50
Method: All incubations were performed at 37° C. in a humidified carbon dioxide incubator.
(§1) The cells were seeded in a 96-well plate (white wall/transparent bottom) at 5000 cells/well and cultured overnight.
(§2) On day 2, A stock solution of the compound at a concentration of 10 mM was subjected to an 8-fold serial dilution to obtain 8 concentration points. 2 μL of the compound solution at each concentration point was added to 98 μL of fresh medium, and the mixture was mixed homogeneously. Then, 5 μL of the compound solution diluted in the medium at each concentration point was added to 100 μL of overnight medium containing the cells, and 2 replicates were set for each concentration. The mixture was cultured for 72 h.
(§3) After 72 h of compound treatment, the plate was equilibrated to room temperature, 100 μL of CellTiterGlo (Promega) was added. The mixture was mixed homogeneously for 2 min, left to stand at room temperature for 10 min, and then read for luminescence values on a SpectraMax M5 microplate reader to evaluate cell viability. The positive control was 1% Tween-20 and the negative control was 0.1% DMSO. IC50 was generated by 4-parameter non-linear regression fitting in GraphPad Prism.

LNCaP = test: Cell proliferation assay (CellTiterGlo, 72 h), LNCaP; format: cell-based; settings: Homo sapiens, LNCap cells, 72 h compound treatment, read-out: LNCap ATP average IC50
Method: The cell line used was 22RV1 or LNCaP, and the medium was RPMI-1640 containing 10% FBS and antibiotics. All incubations were performed at 37° C. in a humidified carbon dioxide incubator.
On day 1, cells were digested with 0.25% trypsin (containing EDTA) and collected by centrifugation.
as §1, §2, §3

BRD4 [1] = biological target: T1, BRD4 (Homo sapiens, UniProt O60885); test: BRD4 degradation assay (Western-blot / Simple Western) in LNCap; format: cell-based; settings: LNCap cells, target content as percentage of control (DMSO = 100%)
Method: The mixture was centrifuged for 5 min. […] The PVDF membrane was cut and labeled. […] Images were acquired and analyzed.

BRD4 [2] = biological target: T1, BRD4; test: BRD4 degradation assay (Western-blot / Simple Western) in 22RV1; settings: 22RV1 cells, target content as percentage of control (DMSO = 100%)
[3] = 22Rv1 cells, 72 h compound treatment, CellTiterGlo

Structure (SMILES) | IC50 (22RV1; 22Rv1, 72 h) [nM] | IC50 (LNCaP) [nM] | BRD4 degradation of LNCap (200 nM 5 h) (BRD4 [1]) | BRD4 degradation of 22RV1 (200 nM 5 h) (BRD4 [2]) | IC50 (22RV1; [3]) [nM]
COc1ccc2c(c1)C(c1ccc(/C=C/CNO)cc1)=N[C@@H](CC(=O)OC1(C)CC1)c1nnc(C)n1-2 [Compound 9185] | < 50 | < 50 | A (A<20%) | B (20%<B<50%) | 
COc1ccc2c(c1)C(c1ccc(/C=C/CN)cc1)=N[C@@H](Cc1nccs1)c1nnc(C)n1-2 [Compound 9140] | > 500 | 50 to 200 | B (20%<B<50%) | B (20%<B<50%) | 
COc1ccc2c(c1)C(c1ccc(/C=C/CNOC(C)=O)cc1)=N[C@@H](CC(=O)OC(C)(C)C)c1nnc(C)n1-2 [Compound 9146] | < 50 | < 50 | A (A<20%) | A (A<20%) | 
COc1ccc2c(c1)C(c1ccc(C#CCNO)cc1)=N[C@@H](CC(=O)OC(C)(C)C)c1nnc(C)n1-2 [Compound 9130] | < 50 | < 50 | A (A<20%) | B (20%<B<50%) | 
COc1ccc2c(c1)C(c1ccc(C#CCNO)cc1)=N[C@@H](Cc1nccs1)c1nnc(C)n1-2.Cl [Compound 9174] | 200 to 500 | 50 to 200 | B (20%<B<50%) | C (50%<C<80) | 
COc1ccc2c(c1)C(c1ccc(/C=C/CN)cc1)=N[C@@H](CC(=O)OC(C)(C)C)c1nnc(C)n1-2 [Compound 9131] | 50 to 200 | < 50 | A (A<20%) | B (20%<B<50%) | 
COc1ccc2c(c1)C(c1ccc(/C=C/CNO)cc1)=N[C@@H](Cc1nccs1)c1nnc(C)n1-2.Cl [Compound 9167] | < 50 | < 50 | A (A<20%) |  | 
COc1ccc2c(c1)C(c1ccc(C#CCN)cc1)=N[C@@H](Cc1nccs1)c1nnc(C)n1-2 [Compound 9139] | 50 to 200 | < 50 | A (A<20%) | B (20%<B<50%) | 
Cc1sc2c(c1C)C(c1ccc(C#CCN)cc1)=N[C@@H](CC(=O)OC1(C)CC1)c1nnc(C)n1-2 [Compound 9103] | < 50 | < 50 |  | B (20%<B<50%) | 
CONC/C=C/c1ccc(C2=N[C@@H](CC(=O)OC(C)(C)C)c3nnc(C)n3-c3ccc(OC)cc32)cc1 [Compound 9079] | < 50 | < 50 |  | A (A<20%) | 
Cc1sc2c(c1C)C(c1ccc(C#CCN)cc1)=N[C@@H](CC(=O)OCC1(C)COC1)c1nnc(C)n1-2 [Compound 9112] | 50 to 200 | 50 to 200 |  | D (80%<D<100%) | 
Cc1sc2c(c1C)C(c1ccc(C#CCNC(=N)NO)cc1)=N[C@@H](CC(=O)OC(C)(C)C)c1nnc(C)n1-2 [Compound 9111] |  | 50 to 200 |  | D (80%<D<100%) | 200 to 500
Cc1sc2c(c1C)C(c1ccc(-c3ccc(CN)o3)cc1)=N[C@@H](CC(=O)OC(C)(C)C)c1nnc(C)n1-2 [Compound 9071] |  | 50 to 200 |  | C (50%<C<80) | 50 to 200
